Tests used:
[1] = Chemical stability of Ach at body temperature (37 C, HPLC with UV detection); format: physicochemical
Text: To determine the stability of acetylcholine at 37 C to help guide the reservoir sizes and locations, aliquots of reference acetylcholine and standard strength Miochol-E (acetylcholine, injectable, Novartis Pharmaceuticals) were stored in sterile glass containers at 37 C.

[2] = tested on: denervated orbicularis oculi; experiment: Ach stimulation in the denervated rabbit model (Miochol-E injected into orbicularis oculi pocket); format: in vivo; set-up: key to eyelid response to Ach delivered: N = no response; C = complete eyelid closure
Text: a) Two white New Zealand female rabbits were anesthetized by using 3-5% isofluorane inhalation and ketamine/xylazine and monitored by Heska monitor (SP02, heart rate, and rectal temperature). b) A pre-auricular incision was made the facial nerve was surgically sectioned and a five millimeter section was eliminated.
To determine the response of denervated orbicularis oculi in rabbits to stimulation with varying dosages of Miochol-E (acetylcholine chloride, injectable, Novartis pharmaceuticals) the FDA approved Miochol-E in 10 mg/ml, or 0.055M Ach (molar mass of 182 g/mol) was used to test the effects in the denervated rabbit model.
Methods: The rabbit was sedated in standard fashion, an eyelid incision was made 5 mm from the lash line and the Miochol E was injected into the orbicularis oculi pocket. Retesting was done at six weeks.

[3] = tested on: right denervated orbicularis oculi; experiment: Synergistic action of electric stimulation and Ach on denervated orbicularis oculi; format: in vivo, rabbit
Text: A possible synergistic interaction between Ach and electric stimulation were observed as follows. After having injected an amount of Ach into the right denervated orbicularis oculi that produced no reaction, electric stimulation was delivered to the muscle at an intensity previously unable to produce a definitive blink.
In a subsequent test session, the right denervated orbicularis was first tested using electrical stimulation alone (prior to any Ach testing) as shown in Table III.
After the delivery of 200 ul of Ach to the right denervated orbicularis oculi, the right orbicularis oculi was allowed to relax to baseline position prior to Ach stimulation. No saline flush was performed. Electric stimulation was given at 10 msec phase duration at 3 volts.

[4] = Full Strength Ach (10 mg/ml), 200 μl, denervated rabbit orbicularis oculi

CC(=O)OCC[N+](C)(C)C.[Cl-] [Ach, acetylcholine chloride]
stability at body temperature ([1]; 14 days in sterile glass at 37 C): stable | Peak Area (Ach concentration by HPLC-UV) ([1]; after storage at 37 C for 14 days in sterile glass): 56494 | muscle contraction / eyelid closure (conclusion from experiments) ([2]; Ach delivered to the orbicularis in a diffuse fashion, at certain concentrations and volumes): tonic, prolonged closure | eyelid response to Ach delivered ([2]; Ach dilution 1:1, 0.5 μl, denervated rabbit orbicularis oculi): N | eyelid response to Ach delivered ([2]; Ach dilution 1:1, 1 μl, denervated rabbit orbicularis oculi): N | eyelid response to Ach delivered ([2]; Ach dilution 1:1, 5 μl, denervated rabbit orbicularis oculi): N | eyelid response to Ach delivered ([2]; Ach dilution 1:1, 10 μl, denervated rabbit orbicularis oculi): N | eyelid response to Ach delivered ([2]; Ach dilution 1:1, 25 μl, denervated rabbit orbicularis oculi): N | eyelid response to Ach delivered ([2]; Ach dilution 1:1, 50 μl, denervated rabbit orbicularis oculi): N | eyelid response to Ach delivered ([2]; Ach dilution 1:1, 100 μl, denervated rabbit orbicularis oculi): N | eyelid response to Ach delivered ([2]; Ach dilution 1:2, 0.5 μl, denervated rabbit orbicularis oculi): N | eyelid response to Ach delivered ([2]; Ach dilution 1:2, 1 μl, denervated rabbit orbicularis oculi): N | eyelid response to Ach delivered ([2]; Ach dilution 1:2, 5 μl, denervated rabbit orbicularis oculi): N | eyelid response to Ach delivered ([2]; Ach dilution 1:2, 10 μl, denervated rabbit orbicularis oculi): N | eyelid response to Ach delivered ([2]; Ach dilution 1:2, 25 μl, denervated rabbit orbicularis oculi): N | eyelid response to Ach delivered ([2]; Ach dilution 1:2, 50 μl, denervated rabbit orbicularis oculi): N | eyelid response to Ach delivered ([2]; Ach dilution 1:2, 100 μl, denervated rabbit orbicularis oculi): N | eyelid response to Ach delivered ([2]; Ach dilution 1:5, 0.5 μl, denervated rabbit orbicularis oculi): N | eyelid response to Ach delivered ([2]; Ach dilution 1:5, 1 μl, denervated rabbit orbicularis oculi): N | eyelid response to Ach delivered ([2]; Ach dilution 1:5, 5 μl, denervated rabbit orbicularis oculi): N | eyelid response to Ach delivered ([2]; Ach dilution 1:5, 10 μl, denervated rabbit orbicularis oculi): N | eyelid response to Ach delivered ([2]; Ach dilution 1:5, 25 μl, denervated rabbit orbicularis oculi): N | eyelid response to Ach delivered ([2]; Ach dilution 1:5, 50 μl, denervated rabbit orbicularis oculi): N | eyelid response to Ach delivered ([2]; Ach dilution 1:5, 100 μl, denervated rabbit orbicularis oculi): N | eyelid response to Ach delivered ([2]; Ach dilution 1:10, 0.5 μl, denervated rabbit orbicularis oculi): N | eyelid response to Ach delivered ([2]; Ach dilution 1:10, 1 μl, denervated rabbit orbicularis oculi): N | eyelid response to Ach delivered ([2]; Ach dilution 1:10, 5 μl, denervated rabbit orbicularis oculi): N | eyelid response to Ach delivered ([2]; Ach dilution 1:10, 10 μl, denervated rabbit orbicularis oculi): N | eyelid response to Ach delivered ([2]; Ach dilution 1:10, 25 μl, denervated rabbit orbicularis oculi): N | eyelid response to Ach delivered ([2]; Ach dilution 1:10, 50 μl, denervated rabbit orbicularis oculi): N | eyelid response to Ach delivered ([2]; Ach dilution 1:10, 100 μl, denervated rabbit orbicularis oculi): N | eyelid response to Ach delivered ([2]; Full Strength Ach (10 mg/ml), 0.5 μl, denervated rabbit orbicularis oculi): N | eyelid response to Ach delivered ([2]; Full Strength Ach (10 mg/ml), 1 μl, denervated rabbit orbicularis oculi): N | eyelid response to Ach delivered ([2]; Full Strength Ach (10 mg/ml), 5 μl, denervated rabbit orbicularis oculi): N | eyelid response to Ach delivered ([2]; Full Strength Ach (10 mg/ml), 10 μl, denervated rabbit orbicularis oculi): N | eyelid response to Ach delivered ([2]; Full Strength Ach (10 mg/ml), 25 μl, denervated rabbit orbicularis oculi): N | eyelid response to Ach delivered ([2]; Full Strength Ach (10 mg/ml), 50 μl, denervated rabbit orbicularis oculi): N | eyelid response to Ach delivered ([2]; Full Strength Ach (10 mg/ml), 100 μl, denervated rabbit orbicularis oculi): N | duration of complete eyelid closure [2, 4]: 1 min | eyelid response to Ach delivered [2, 4]: C | eyelid response to electric stimulation after Ach delivery ([3]; after 200 ul of Ach, muscle relaxed to baseline, no saline flush, electric stimulation 10 msec phase duration at 3 volts): Reproducible complete closure blinks | eyelid reaction to injected Ach alone ([3]; an amount of Ach injected into the right denervated orbicularis oculi, before electric stimulation): no reaction | eyelid response to electric stimulation after Ach injection ([3]; electric stimulation at an intensity previously unable to produce a definitive blink, after Ach amount that produced no reaction, over three stimulated partial blink motions): closed tightly for four minutes

— US20090306454A1, “Devices and Methods for Stimulation of Tissue” (Stanford University, priority 2005, published 2009)
